# Measurements published in US4889871A, “Alkoxy-substituted dihydrobenzopyran-2-carboxylate derivatives” (G. D. Searle & Co., priority 1988, dated 1989).
# Like-named read-outs stand apart in the source and are kept apart here.
# Assays:
# [1] = biological target: T1, LTB4 receptor (Homo sapiens, UniProt Q15722); experiment: LTB4 receptor binding assay ((3H) LTB4, human neutrophils)
# T1 construct: Neutrophils were purified from venous blood of normal human donors; endogenous in cells; host or cells: purified human blood neutrophils (intact cells)
# Protocol: Neutrophils (4-6×10^6) in 1 ml Hanks' balanced salt solution containing 10 mM HEPES buffer (HBSS), pH 7.4 and 30 μM nordihydroguaiaretic acid were incubated with 0.6×10^-9 M (^3 H) LTB4 in the presence or absence of test compounds. The incubation was carried out at 0° C. for 45 minutes and terminated by adding 5 ml of ice-cold HBSS followed by rapid filtration of incubation mixture under vacuum through GF/C glass fiber filters. The filters were further washed with 10 ml HBSS and radioactivity was determined. Specific binding was defined as the difference between total binding and nonspecific binding which was not displaced by 10^-7 M unlabeled LTB4. All data refer to specific binding.
# [2] = system: human neutrophils; experiment: Modified Boyden chamber chemotaxis (LTB4, human neutrophils); assay type: cell-based; settings: Neutrophil
# Protocol: Human neutrophils were isolated from citrated peripheral blood using standard techniques of dextran sedimentation, followed by centrifugation on Histopaque® sterile solution (Sigma) or Ficoll-paque® (Pharmacia) and hypotonic lysis of erythrocytes. A final cell suspension of 3.4×10^6 neutrophils/ml of HEPES-buffered Hanks balanced salt solution (HBSS, pH 7.3) was added to the upper well (0.8 ml) of a modified Boyden chamber (blind well). The lower well (0.2 ml), separated by a polycarbonate membrane (Nuleopore Corp.), contained HBSS or 3×10^-8 M LTB4 in the presence of absence of test compound. Following a 90 minute incubation at 37° C. in 5% CO2 -95% air, cells from the lower well were lysed and nuclei counted in a Model S-Plus-IV Coulter Counter. Percent inhibition was calculated from cell counts corrected for random migration by subtracting the mean of the HBSS control.
# [3] = biological target: T2, guinea pig ileum (Cavia porcellus, UniProt Q2NNR5); experiment: LTD4 antagonism in guinea pig ileum (contraction)
# T2 construct: from tissue; host or cells: guinea pig ileum segments
# T2 sequence (Q2NNR5 1-340): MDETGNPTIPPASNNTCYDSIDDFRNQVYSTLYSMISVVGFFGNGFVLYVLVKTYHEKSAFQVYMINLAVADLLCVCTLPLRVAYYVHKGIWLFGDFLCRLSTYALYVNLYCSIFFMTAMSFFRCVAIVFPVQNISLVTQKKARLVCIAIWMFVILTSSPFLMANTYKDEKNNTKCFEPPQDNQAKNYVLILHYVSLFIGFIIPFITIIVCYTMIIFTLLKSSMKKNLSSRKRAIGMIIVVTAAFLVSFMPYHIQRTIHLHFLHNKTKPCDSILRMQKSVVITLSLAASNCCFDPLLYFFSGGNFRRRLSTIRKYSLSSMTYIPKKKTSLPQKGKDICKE
# Protocol: Fresh segments of guinea pig ileum were suspended in 2 ml. tissue baths containing oxygenated modified Tyrodes solution. […] The ileum segments were washed and rested between exposures to agonist. Following this, the tissues were incubated with a single concentration of test compound and the agonist dose-response procedure was repeated. The dose ration is a measure of the antagonist's ability to shift the agonist dose-response curve to the right. It is derived as the concentration of agonist necessary to reach a given response level in the present (A') versus the absence (A) of antagonist. For example, if the test concentration of compound had no effect on the agonist-induced response (A'=A) the dose-ratio would approximate 1. […] One dose-ratio value is determined for each strip of ileum used to test antagonist. […] Schild analysis examines the linearity of the function described by the dose-ratios written as log (A'/A) versus antagonist concentration. If linearity is confirmed and the slope approximates -1, inhibition is considered to be competitive. […] This value is considered to be a measure of the affinity of the competitive antagonist.
# [4] = biological target: T3, LTD4 receptor (Cavia porcellus, UniProt Q2NNR5); experiment: LTD4 receptor binding assay using guinea pig lung membrane preparations
# T3 construct: from tissue; host or cells: lung membranes of male Hartley guinea pigs
# T3 sequence (Q2NNR5 1-340): T2 sequence (Q2NNR5 1-340)
# Protocol: MEMBRANE PREPARATIONS: For each membrane preparation, 10-11 male Hartley guinea pigs, weighing less than 350 gm, were sacrificed by guillotine. The lungs were rapidly removed and placed in ice-cold 50 mM Trisma 7.0 buffer. After all the lungs were collected, each was probed free of bronchial tissue to at least the level of tertiary branching as observed through a dissecting lamp. The tissue was minced with a razor blade on a damp paper towel and placed into fresh ice-cold Trisma 7.0 buffer. When all the tissues had been processed, they were pooled, drained and weighed. Nine volumes of cold buffer were added and the tissue was polytroned for 6-10 second bursts with a 1 minute cool down period in an ice bath between each burst. The homogenate was filtered through a gauze pad and centrifuged at 1085× g for 15 minutes at 4° C. Supernatants were saved and centrifuged at 40,000× g for 20 minutes at 4° C. This time, supernatants were discarded and the pellets were resuspended in 30-35 ml fresh Trisma 7.0 buffer by 1-10 second bursts with the polytron. The materials were centrifuged again at 40,000× g. Supernatants were again discarded. Each pellet was resuspended again with approximately 7 ml buffer. All this material was pooled into a 100 ml polypropylene container and stirred with a magnetic stirring bar. The tubes were rinsed with small amounts of buffer and the rinse was added to the membrane preparation. The homogenized membranes were aliquoted into 1.5 ml microfuge tubes and frozen at -70° C. Three aliquots were submitted for protein determinations by FPB (fluorescamine protein binding) assay.
# Unless otherwise indicated, all binding experiments were performed in a final incubation volume of 250 μl. […] Both materials were received in solutions. […] Both solutions were brought to appropriate assay concentrations by dilution in assay buffer consisting of 50 mM Trisma 7.4 with 5 mM L-cysteine and 20 mM CaCl2. Membranes were also diluted with this assay buffer. […] Diluent was added to all other appropriate control tubes. Incubations were conducted for 30 minutes at 25° C. in a shaking water bath. Termination of the reaction was achieved by pouring the incubate over 2.5 cm Whatman GF/C filters soaked in assay buffer and set over the ports of Millipore filter vacuum manifolds. Filters were rinsed with 4 ml ice cold assay buffer 3 times. The filters were removed, placed in 10 ml Aquasol scintillation cocktail and allowed to cool in the dark for 2 hours prior to counting. All samples were corrected for background and isotope decay before converting DPM determination to mass.
# These values were logit-transformed and linear regression was performed on the dose-response data. All dose-response sets used to calculate IC50 values contained data from 3-6 compound concentrations. […] IC50 values were calculated from the regression equation for the line.
# male guinea pig lung homogenate which was aliquoted and stored at
# -70° C. The particular preparation used to test the compounds of
# Protein concentrations in these assays were adjusted
# to provide aproximately 0.1 nM receptor in the presence of lnM ^3
# HLTD4. Incubation was conducted for 30 min.
# at 24° C. and filtration methods were used to separate bound from
# tested were intially solubilized in DMSO. Each compound was evaluated at
# dose of 10 μM (10^-5 M) in triplicate in 2 separate assays. The
# [5] = relative to Compound III where --OCH3 is replaced with --OH
# T1 sequence (Q15722 whole entry): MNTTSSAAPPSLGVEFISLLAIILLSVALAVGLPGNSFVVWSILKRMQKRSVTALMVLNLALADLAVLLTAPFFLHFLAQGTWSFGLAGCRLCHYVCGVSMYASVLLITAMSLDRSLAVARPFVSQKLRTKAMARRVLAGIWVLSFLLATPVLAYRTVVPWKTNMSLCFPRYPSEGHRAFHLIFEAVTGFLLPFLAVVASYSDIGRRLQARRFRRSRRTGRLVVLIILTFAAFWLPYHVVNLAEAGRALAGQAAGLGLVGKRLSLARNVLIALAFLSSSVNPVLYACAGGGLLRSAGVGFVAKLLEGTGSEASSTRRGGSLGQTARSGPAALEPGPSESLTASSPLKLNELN
structure (smiles),measurement,setting,value
"CCCc1c(OCCCOc2ccc(C(C)=O)c(OC)c2CCC)ccc2c1OC(C(=O)O)CC2 (stereo not drawn) [Example 1, 7-[3-(4-acetyl-3-methoxy-2-propylphenoxy)propoxy]-3,4-dihydro-8-propyl-2H-1-benzopyran-2-carboxylic acid]",inhibition at 0.3 µM,"[1]; 0.75 h, read-out: LTB4 Receptor Binding (percent at stated concentration)",50%
same,more potent than the --OH compound in LTB4 receptor binding,[1]; [5],about 5 ×
same,IC50,[2],3000 nM
same,Kb,[3]; read-out: Guinea Pig Ileum Contraction pA2 (converted),≥ 316 nM
same,less active as an LTD4 antagonist in the guinea pig ileum smooth muscle contraction test,[3]; [5],at least 10 ×
same,Receptor Binding LTD4 IC50,"[4]; Table 1, results are from Table 3, 10^-5 M",Inactive
same,inhibition at 10 µM,[4]; read-out: LTD4 Receptor Binding Activity,< 45%
same,inhibition at 10 µM,"[4]; read-out: LTD4 Receptor Binding Percent Inhibition, Test #1, triplicate, 30 min, 24° C.",4.07%
same,inhibition at 10 µM,"[4]; read-out: LTD4 Receptor Binding Percent Inhibition, Test #2, triplicate, 30 min, 24° C.",16.4%
